In PubChem BioAssay (NCI) one finds TGI data, which are given here for 23 compounds.

Common to all, as to assay: DTP human tumour cell line panel, 48 h
The subject of assay [1] is MALME-3M melanoma.
In assay [2] the test system is NCI-H460 lung.
The subject of assay [3] is MCF7 breast.
Assay [4] relates to ACHN renal.
For assay [5], the system named is HS 578T breast.
Assay [6] relates to SR leukemia.
Assay [7] concerns OVCAR-8 ovarian.
Assay [8] has as its system NCI-H522 lung.
For assay [9], the system named is HT29 colon.
Assay [10] has as its system IGROV1 ovarian.

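Cells were grown in 96-well plates and exposed to each compound for 48 hours at five concentrations; endpoints were interpolated linearly between bracketing concentrations, or set to the highest concentration if not reached. TGI: total growth inhibition.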

The TGI is the concentration at which net growth stops.

Consider `O=C(O)C(F)(F)C(F)(F)C(F)(F)C(F)(F)C(=O)O`, for which the TGI in assay [1], in [2], in assay [3], in [4], in [5] and in assay [6] was over 100 µM throughout. Moreover, the TGI in [7], in [8], in [9] and in assay [10] was over 100 µM each time.

For the compound `CCSCC(=O)N1CCc2c([nH]c3ccccc23)C1=O`, the TGI in [1], in [2], in [3], in assay [4], in assay [5] and in assay [6] was over 100 µM throughout. For the same compound, the TGI in assay [7], in assay [8], in assay [9] and in assay [10] was over 100 µM in each case.

`N#Cc1ccc(/C=N/NC(=O)CSCC(=O)N/N=C/c2ccc(C#N)cc2)cc1`: the TGI in [1], in [2], in assay [3], in assay [4], in [5] and in [6] was over 100 µM each time. Further, the TGI in assay [7], in assay [8], in [9] and in [10] was over 100 µM each time.

With `Cc1ccc(S(=O)(=O)NC(=O)NC(Cc2ccccc2)C(=O)O)cc1` (stereo not drawn), the TGI in assay [1], in [2], in [3], in assay [4], in assay [5] and in assay [6] was over 100 µM each time. Moreover, the TGI in assay [7], in assay [8], in assay [9] and in assay [10] was over 100 µM each time.

With `O=c1c(/C=C/c2c(O)ccc3ccccc23)nnc2sc(-c3cccc([N+](=O)[O-])c3)nn12`, the TGI in [1] was 47.3 µM; in assay [4], over 100 µM; in [5], 56.1 µM; in assay [6], over 100 µM; in [7] it was over 100 µM; in [8], 28.1 µM. Further, the TGI in assay [9] and in [10] was over 100 µM each time.

Turning to `COc1ccc(-c2cc(C3CC3)nc(SCC(=O)O)c2C#N)cc1`, the concentration for total growth inhibition (TGI) in assay [2], in assay [3], in assay [4], in assay [5], in [6] and in [7] was over 100 µM each time. The TGI in assay [8] is 71.6 µM; in assay [9], over 100 µM; in [10] it was over 100 µM.

On to `OC12C3C4CC5C(C4[C@@H]1Br)C2[C@@](O)(c1c(F)c(F)c(F)c(F)c1F)C53` (stereo partly drawn), for which the TGI in assay [2] was over 100 µM; in assay [3], 43.7 µM; in assay [4] it was over 100 µM; in [5], 97.5 µM; in assay [6], 52.7 µM; in assay [7] it was over 100 µM. Moreover, the TGI in assay [8], in assay [9] and in [10] was over 100 µM in each case.

For the compound `CCOC(O)C(F)(F)F` (stereo not drawn), the TGI in assay [2], in assay [3], in assay [4], in assay [5], in assay [6] and in [7] was over 100 µM throughout. The TGI in assay [9] was over 100 µM.

As for `N#CCN1CCCCCc2ccccc21`, the concentration for total growth inhibition (TGI) in assay [1], in [2], in assay [3], in assay [4], in assay [5] and in assay [6] was over 100 µM throughout. In addition, the TGI in assay [7], in assay [9] and in assay [10] was over 100 µM throughout.

For `Cc1c(C)c2c(c(N)c1C#N)C(=O)N(OS(=O)(=O)c1ccccc1)C2=O`, the TGI in assay [1] is 31.8 µM; in [2] it was over 100 µM; in assay [3], over 100 µM; in assay [4], 33.1 µM; in assay [5], over 100 µM; in [6], over 100 µM. For the same compound, the TGI in assay [7] turned out to be 38.6 µM; in [8], 34 µM; in assay [10] it was 37.7 µM.

On to `CN1c2ccccc2C(=O)NC12CCN(Cc1ccccc1)CC2`, for which the total growth inhibition concentration (TGI) in assay [1], in [2], in [3], in assay [4], in assay [5] and in assay [6] was over 100 µM throughout. The TGI in [7], in assay [9] and in assay [10] was over 100 µM in each case.

Take `O=C1c2n[nH]nc2C(=O)c2n[nH]nc21`: the TGI in assay [2], in [3], in [4], in [5], in assay [6] and in assay [7] was over 100 µM each time. Further, the TGI in [8], in [9] and in [10] was over 100 µM in each case.

As to `CC1=NC2(CCCCC2)N(Cl)C(=O)C1SC#N` (stereo not drawn), the total growth inhibition concentration (TGI) in [1] was 41.9 µM; in assay [3], 48.9 µM; in assay [4], 31.6 µM; in assay [5], over 100 µM; in assay [6], over 100 µM; in assay [7] it was 32.7 µM. In addition, the TGI amounted to 38.8 µM in assay [8], 46.4 µM in assay [9] and 34.4 µM in assay [10].

`O=S(=O)(O)c1ccc2c(N=Nc3ccccc3)c(O)c(S(=O)(=O)O)cc2c1`: the TGI in [1], in assay [2], in assay [3], in [4], in assay [5] and in assay [6] was over 100 µM throughout. The TGI in assay [7], in [8] and in assay [10] was over 100 µM each time.

Take `O=C1C=C(N2CCCC2)C(=O)c2c(O)ccc(O)c21`: the TGI in assay [1] is over 10 µM; in assay [2], over 10 µM; in [3], over 10 µM; in assay [4], over 10 µM; in assay [5], over 10 µM; in assay [6] it was over 1 µM. Besides, the TGI in [7], in [9] and in [10] was over 10 µM throughout.

With `N#CN=C1c2ccccc2C(=NC#N)c2cc(CO)ccc21`, the TGI in [2] is over 100 µM; in assay [3], 83.1 µM; in assay [4], 74 µM; in assay [5], over 100 µM; in assay [6] it was 43 µM; in assay [7], over 100 µM. Also, the concentration for total growth inhibition (TGI) is over 100 µM in assay [8], over 100 µM in [9] and 90.7 µM in [10].

With `c1nncn1C12C3C4C5C3C1C5C42` (stereo not drawn), the TGI in assay [2], in [3], in assay [4], in assay [5], in [6] and in [7] was over 100 µM each time. Moreover, the TGI in assay [8], in [9] and in assay [10] was over 100 µM each time.

For the compound `CCn1nc(-c2ccccc2)c2c1N(C)c1ccccc1-n1c(-c3ccccc3)nnc1-2`, the TGI in assay [2] was 29.2 µM; in [3] it was 19.8 µM; in [4] it was 26.8 µM; in assay [5] it was 52.4 µM; in [6] it was over 100 µM; in assay [7], 62.3 µM. In assay [10], this compound gave a TGI of 40.3 µM.

Turning to `CC(=O)Nc1ccc(N2C(=O)CS(=O)(=O)C2c2cccc(Oc3ccccc3)c2)cc1` (stereo not drawn), the TGI in [1] came to 38.8 µM; in assay [2] it was 34.7 µM; in [3], 35.9 µM; in assay [4], 36.3 µM; in assay [5], 79.9 µM; in assay [6] it was 48.7 µM. Also, the TGI in assay [7] is 41.6 µM; in assay [8], 41.9 µM; in assay [9], 37.7 µM.

As for `CCN(CC)c1ccc(/C=c2\nc(-c3ccccc3)n3c2nc2ccccc23)cc1`, the TGI in assay [1] is 52.3 µM; in assay [2] it was over 100 µM; in [3], over 100 µM; in assay [4], 88.3 µM; in assay [5], over 100 µM; in assay [6] it was over 100 µM. In addition, the values for the TGI in assay [7], in [9] and in assay [10] were over 100 µM, 5.98 µM and over 100 µM, respectively.

As to `c1ccc2c(c1)nc1n2CCNC1`, the TGI in assay [2], in assay [3], in assay [4], in assay [5], in [6] and in assay [7] was over 100 µM each time. The TGI in [9] and in assay [10] was over 100 µM in each case.

For the compound `CC(C)=CCC/C(=C\CC/C(=C\CCc1ccoc1)C(=O)O)C(=O)O`, the TGI in assay [1], in assay [3], in assay [4], in assay [5], in [6] and in assay [7] was over 100 µM throughout. Moreover, the TGI in [8], in assay [9] and in assay [10] was over 100 µM in each case.

`C/C=C1\CN2CCC34c5ccccc5N(C)C35OCC4(C(=O)OC)C1CC25` (stereo not drawn): the TGI in assay [2] was 64.8 µM; in assay [3], over 100 µM; in assay [4], over 100 µM; in [5] it was over 100 µM; in [6] it was over 100 µM; in assay [8] it was over 100 µM. The compound also gave a total growth inhibition concentration (TGI) in assay [10] of over 100 µM.
